Laboratory results from patent publication US20230165831A1, “METHOD AND COMPOSITION FOR RENDERING CANCER CELLS SUSCEPTIBLE TO TREATMENT BY TARGETED ONCOGENETIC DRIVERS” (IMPACT BIOLIFE SCIENCE, INC., priority 2021, published 2023).
Read-outs that look alike come from different tables or passages of the source.

Legend:
[1] = test system: glioblastoma line U87MG cells; assay: CTG (CellTiter-Glo) cell viability assay, 6×6 combo matrix, 72 h, U87MG; conditions: Homo sapiens, U-87 MG;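 note: U87MG cells seeded at 2000 per well, exposed 72 h, viability read by CellTiter-Glo luminescence, inhibition expressed relative to vehicle-treated wells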
Experimental: (§1) To measure the cell inhibition effect of compounds and synergy effect of test articles on ten (10) cell lines using standard CTG assay.
(§2) 7) Using complete cell medium, adjust the volume of the suspension to achieve a cell concentration.
(§3) U87MG cell lines, for compounds and vehicle groups, the seeding density of cell lines is 2000 cells/80 µL per well. For blank groups, add 100 µL medium. For PBS groups, add 100 µL PBS.
(§4) 8) Incubate the U87MG, A549, T47D, SK-OV-3, MKN45, SK-Hep-1, HT-29, Capan-1, 786-O and LNCaP cells overnight at 37° C./5% CO2.
(§5) Solid compound of cis-platinum was solubilized in PBS to a stock solution of 3.333 mM.
(§6) Final volume is 100 µL per well at this point.
(§7) 5) Incubate the plates at 37° C./5% CO2 for 72 hours.
(§8) 1) Incubate the plates at room temperature and away from light for 30 minutes.
(§9) 3) Add 100 µL /well of CellTiter-Glo® Reagent in each well. Avoid light.
(§10) 4) Mix contents for 2 minutes on an orbital shaker.
(§11) 5) Incubate plate at room temperature for 10 minutes to stabilize the luminescent signal.
6) Read plates in Envision.

[2] = test system: glioblastoma line U87MG cells;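 note: U87MG cells seeded at 2000 per well, exposed 72 h, viability read by CellTiter-Glo luminescence, inhibition expressed relative to vehicle-treated wells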
Experimental: as §1, §2, §3, §4, §5, §6, §7, §8, §9, §10, §11
6) Read plates in Envision.

[3] = test system: gastric cancer line MKN45 cells;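 note: MKN45 cell viability read as CellTiter-Glo luminescence after 72 h culture at 37 °C under 5% CO2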
[4] = test system: lung adenocarcinoma line A549 cells;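 note: luminescent ATP readout with CellTiter-Glo after compound exposure, used to assess growth inhibition and combination synergy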

## COc1cccc2c1C(=O)c1c(O)c3c(c(O)c1C2=O)C[C@@](O)(C(=O)CO)C[C@@H]3O[C@H]1C[C@H](N)[C@H](O)[C@H](C)O1 [doxorubicin]
[1]; 72 h, read-out: Relatively Cell inhibition of vehicle control(%), U87MG, 80 nM doxorubicin only (LB-1 0), 72 h
  inhibition at 0.08 µM: 50%
[1]; 72 h, read-out: Relatively Cell inhibition of vehicle control(%), U87MG, 400 nM doxorubicin only (LB-1 0), 72 h
  inhibition at 0.4 µM: 91.3%
[1]; 72 h, read-out: Relatively Cell inhibition of vehicle control(%), U87MG, 2000 nM doxorubicin only (LB-1 0), 72 h
  inhibition at 2 µM: 72.4%
[1]; 72 h, read-out: Relatively Cell inhibition of vehicle control(%), U87MG, 10000 nM doxorubicin only (LB-1 0), 72 h
  inhibition at 10 µM: 78.4%
[1]; read-out: Relatively Cell inhibition of vehicle control(%), doxorubicin 16 nM only
  inhibition at […]: 27.4%
[1]; read-out: Relatively Cell inhibition of vehicle control(%), doxorubicin 80 nM only
  inhibition at 0.08 µM: 52.5%
[1]; read-out: Relatively Cell inhibition of vehicle control(%), doxorubicin 400 nM only
  inhibition at 0.4 µM: 93%
[1]; read-out: Relatively Cell inhibition of vehicle control(%), doxorubicin 2000 nM only
  inhibition at 2 µM: 78.3%
[1]; read-out: Relatively Cell inhibition of vehicle control(%), doxorubicin 10000 nM only
  inhibition at 10 µM: 80.8%
[2]
  inhibition: 27.5%

## O=c1c(O)c(-c2cc(O)c(O)c(O)c2)oc2cc(O)cc(O)c12 [myricetin]
[1]; read-out: Relatively Cell inhibition of vehicle control(%), myricetin 0.8 µM only (cisplatin plate)
  inhibition at 0.8 µM: 1.25%
[1]; read-out: Relatively Cell inhibition of vehicle control(%), myricetin 0.8 µM only (doxorubicin plate)
  inhibition at 0.8 µM: -1.19%
[1]; read-out: Relatively Cell inhibition of vehicle control(%), myricetin 0.8 µM only (taxol plate)
  inhibition at 0.8 µM: 2.29%
[1]; read-out: Relatively Cell inhibition of vehicle control(%), myricetin 0.8 µM only (topotecan plate)
  inhibition at 0.8 µM: 3.94%
[1]; read-out: Relatively Cell inhibition of vehicle control(%), myricetin 4 µM only (cisplatin plate)
  inhibition at 4 µM: -0.71%
[1]; read-out: Relatively Cell inhibition of vehicle control(%), myricetin 4 µM only (doxorubicin plate)
  inhibition at 4 µM: 1.02%
[1]; read-out: Relatively Cell inhibition of vehicle control(%), myricetin 4 µM only (taxol plate)
  inhibition at 4 µM: 0.66%
[1]; read-out: Relatively Cell inhibition of vehicle control(%), myricetin 4 µM only (topotecan plate)
  inhibition at 4 µM: 3.52%
[1]; read-out: Relatively Cell inhibition of vehicle control(%), myricetin 20 µM only (cisplatin plate)
  inhibition at 20 µM: 9.21%
[1]; read-out: Relatively Cell inhibition of vehicle control(%), myricetin 20 µM only (doxorubicin plate)
  inhibition at 20 µM: 7.98%
[1]; read-out: Relatively Cell inhibition of vehicle control(%), myricetin 20 µM only (taxol plate)
  inhibition at 20 µM: 11.1%
[1]; read-out: Relatively Cell inhibition of vehicle control(%), myricetin 20 µM only (topotecan plate)
  inhibition at 20 µM: 8.45%
[1]; read-out: Relatively Cell inhibition of vehicle control(%), myricetin 100 µM only (cisplatin plate)
  inhibition at 100 µM: 46.8%
[1]; read-out: Relatively Cell inhibition of vehicle control(%), myricetin 100 µM only (doxorubicin plate)
  inhibition at 100 µM: 32.3%
[1]; read-out: Relatively Cell inhibition of vehicle control(%), myricetin 100 µM only (taxol plate)
  inhibition at 100 µM: 45.7%
[1]; read-out: Relatively Cell inhibition of vehicle control(%), myricetin 100 µM only (topotecan plate)
  inhibition at 100 µM: 43.4%

## CC(=O)O[C@H]1C(=O)[C@@]2(C)[C@H]([C@H](OC(=O)c3ccccc3)[C@]3(O)C[C@H](OC(=O)[C@H](O)[C@@H](NC(=O)c4ccccc4)c4ccccc4)C(C)=C1C3(C)C)[C@]1(OC(C)=O)CO[C@@H]1C[C@@H]2O [taxol, paclitaxel]
[3]
  inhibition: 35.1%
[1]; 72 h, read-out: Relatively Cell inhibition of vehicle control(%), U87MG, 8 nM taxol only (LB-1 0), 72 h
  inhibition at 0.008 µM: 42.7%
[1]; 72 h, read-out: Relatively Cell inhibition of vehicle control(%), U87MG, 40 nM taxol only (LB-1 0), 72 h
  inhibition at 0.04 µM: 53.9%
[1]; 72 h, read-out: Relatively Cell inhibition of vehicle control(%), U87MG, 200 nM taxol only (LB-1 0), 72 h
  inhibition at 0.2 µM: 67.8%
[1]; 72 h, read-out: Relatively Cell inhibition of vehicle control(%), U87MG, 1000 nM taxol only (LB-1 0), 72 h
  inhibition at 1 µM: 66.2%
[1]; read-out: Relatively Cell inhibition of vehicle control(%), taxol 8 nM only
  inhibition at 0.008 µM: 46.5%
[1]; read-out: Relatively Cell inhibition of vehicle control(%), taxol 40 nM only
  inhibition at 0.04 µM: 60.6%
[1]; read-out: Relatively Cell inhibition of vehicle control(%), taxol 200 nM only
  inhibition at 0.2 µM: 72.2%
[1]; read-out: Relatively Cell inhibition of vehicle control(%), taxol 1000 nM only
  inhibition at 1 µM: 69.8%
[2]
  inhibition: 5.92%
[4]
  inhibition: 13.7%

## CC[C@@]1(O)C(=O)OCc2c1cc1n(c2=O)Cc2cc3c(CN(C)C)c(O)ccc3nc2-1 [topotecan]
[3]
  inhibition: 14.9%
[1]; read-out: Relatively Cell inhibition of vehicle control(%), topotecan 16 nM only
  inhibition at […]: 15.6%
[1]; read-out: Relatively Cell inhibition of vehicle control(%), topotecan 16 nM only (myricetin plate)
  inhibition at […]: 11.4%
[1]; read-out: Relatively Cell inhibition of vehicle control(%), topotecan 80 nM only
  inhibition at 0.08 µM: 49.3%
[1]; read-out: Relatively Cell inhibition of vehicle control(%), topotecan 80 nM only (myricetin plate)
  inhibition at 0.08 µM: 51.6%
[1]; read-out: Relatively Cell inhibition of vehicle control(%), topotecan 400 nM only
  inhibition at 0.4 µM: 64.1%
[1]; read-out: Relatively Cell inhibition of vehicle control(%), topotecan 400 nM only (myricetin plate)
  inhibition at 0.4 µM: 66.2%
[1]; read-out: Relatively Cell inhibition of vehicle control(%), topotecan 2000 nM only
  inhibition at 2 µM: 73.5%
[1]; read-out: Relatively Cell inhibition of vehicle control(%), topotecan 2000 nM only (myricetin plate)
  inhibition at 2 µM: 76.3%
[1]; read-out: Relatively Cell inhibition of vehicle control(%), topotecan 10000 nM only
  inhibition at 10 µM: 82.1%
[1]; read-out: Relatively Cell inhibition of vehicle control(%), topotecan 10000 nM only (myricetin plate)
  inhibition at 10 µM: 83.4%
